# Results taken from ChEMBL document CHEMBL3885881, “DrugMatrix”.
# Species: Rattus norvegicus
# Experiment: DrugMatrix - Regimen: Daily Repeat
# Assay type: toxicity, organism-based, Sprague-Dawley
# Parameters: regimen Daily Repeat, gender Male, age 6-8 weeks
# Conditions: in vivo, po, route oral GAVAGE, […]; for ABSOLUTE BASOPHIL / ABSOLUTE EOSINOPHIL / ABSOLUTE LYMPHOCYTE / ABSOLUTE MONOCYTE / ABSOLUTE SEGMENTED NEUTROPHIL / BASOPHIL / EOSINOPHIL / ERYTHROCYTE COUNT / HEMATOCRIT / HEMOGLOBIN / LEUKOCYTE COUNT / LYMPHOCYTE / MEAN CORPUSCULAR HEMOGLOBIN / MEAN CORPUSCULAR HEMOGLOBIN CONCENTRATION / MEAN CORPUSCULAR VOLUME / MONOCYTE / NEUTROPHIL / NUCLEATED RED BLOOD CELLS / PLATELET COUNT: tissue Blood; for ALANINE AMINOTRANSFERASE / ALBUMIN / ALKALINE PHOSPHATASE / ASPARTATE AMINOTRANSFERASE / BLOOD UREA NITROGEN / CARBON DIOXIDE / CHLORIDE / CHOLESTEROL / CREATINE PHOSPHOKINASE / CREATININE / GLUCOSE / LACTATE DEHYDROGENASE / LIPASE / PHOSPHORUS / POTASSIUM / SODIUM / TOTAL BILIRUBIN / TOTAL PROTEIN / URIC ACID: tissue Plasma
# [1] = 100 mg/kg, 120 h, dose level Low, time 5 day
# [2] = 1000 mg/kg, 72 h, dose level High, time 3 day
# [3] = 1000 mg/kg, 120 h, dose level High, time 5 day
compound,measurement,setting,value
CCCC[C@@H](CC)COC(=O)c1ccccc1C(=O)OC[C@@H](CC)CCCC [BIS(2-ETHYLHEXYL)PHTHALATE],ABSOLUTE BASOPHIL,[1],0 CELLS/uL
same,ABSOLUTE EOSINOPHIL,[1],0 CELLS/uL
same,ABSOLUTE LYMPHOCYTE,[1],8094 CELLS/uL
same,ABSOLUTE MONOCYTE,[1],0 CELLS/uL
same,ABSOLUTE SEGMENTED NEUTROPHIL,[1],772.67 CELLS/uL
same,BASOPHIL,[1],0%
same,EOSINOPHIL,[1],0%
same,ERYTHROCYTE COUNT,[1],5.86 x10E6/uL
same,HEMATOCRIT,[1],36.1%
same,HEMOGLOBIN,[1],13.63 G/DL
same,LEUKOCYTE COUNT,[1],8.87 x10E3/uL
same,LYMPHOCYTE,[1],92.33%
same,MEAN CORPUSCULAR HEMOGLOBIN,[1],23.33 pg
same,MEAN CORPUSCULAR HEMOGLOBIN CONCENTRATION,[1],37.8 G/DL
same,MEAN CORPUSCULAR VOLUME,[1],61.67 fL
same,MONOCYTE,[1],0%
same,NEUTROPHIL,[1],7.67%
same,NUCLEATED RED BLOOD CELLS,[1],0 /100WBC
same,PLATELET COUNT,[1],682.33 x10E3/uL
same,ALANINE AMINOTRANSFERASE,[1],80 u/L
same,ALBUMIN,[1],4.27 G/DL
same,ALKALINE PHOSPHATASE,[1],577.33 u/L
same,ASPARTATE AMINOTRANSFERASE,[1],98.33 u/L
same,BLOOD UREA NITROGEN,[1],14.67 mg/dL
same,CARBON DIOXIDE,[1],35.67 mmol/L
same,CHLORIDE,[1],99 MEQ/L
same,CHOLESTEROL,[1],41 mg/dL
same,CREATINE PHOSPHOKINASE,[1],172 u/L
same,CREATININE,[1],0.21 mg/dL
same,GLUCOSE,[1],156.33 mg/dL
same,LACTATE DEHYDROGENASE,[1],135.33 u/L
same,LIPASE,[1],22.33 u/L
same,PHOSPHORUS,[1],10.4 mg/dL
same,POTASSIUM,[1],5.25 MEQ/L
same,SODIUM,[1],144.53 MEQ/L
same,TOTAL BILIRUBIN,[1],0.17 mg/dL
same,TOTAL PROTEIN,[1],5.63 G/DL
same,URIC ACID,[1],0.63 mg/dL
same,ABSOLUTE BASOPHIL,[2],0 CELLS/uL
same,ABSOLUTE EOSINOPHIL,[2],0 CELLS/uL
same,ABSOLUTE LYMPHOCYTE,[2],10510 CELLS/uL
same,ABSOLUTE MONOCYTE,[2],28 CELLS/uL
same,ABSOLUTE SEGMENTED NEUTROPHIL,[2],628.67 CELLS/uL
same,BASOPHIL,[2],0%
same,EOSINOPHIL,[2],0%
same,ERYTHROCYTE COUNT,[2],5.07 x10E6/uL
same,HEMATOCRIT,[2],32.33%
same,HEMOGLOBIN,[2],12.8 G/DL
same,LEUKOCYTE COUNT,[2],11.17 x10E3/uL
same,LYMPHOCYTE,[2],93.67%
same,MEAN CORPUSCULAR HEMOGLOBIN,[2],25.3 pg
same,MEAN CORPUSCULAR HEMOGLOBIN CONCENTRATION,[2],39.57 G/DL
same,MEAN CORPUSCULAR VOLUME,[2],63.8 fL
same,MONOCYTE,[2],0.33%
same,NEUTROPHIL,[2],6%
same,NUCLEATED RED BLOOD CELLS,[2],0 /100WBC
same,PLATELET COUNT,[2],532 x10E3/uL
same,ALANINE AMINOTRANSFERASE,[2],82 u/L
same,ALBUMIN,[2],4.03 G/DL
same,ALKALINE PHOSPHATASE,[2],468.67 u/L
same,ASPARTATE AMINOTRANSFERASE,[2],94 u/L
same,BLOOD UREA NITROGEN,[2],14.67 mg/dL
same,CARBON DIOXIDE,[2],26 mmol/L
same,CHLORIDE,[2],96.33 MEQ/L
same,CHOLESTEROL,[2],44.67 mg/dL
same,CREATINE PHOSPHOKINASE,[2],477.67 u/L
same,CREATININE,[2],0.2 mg/dL
same,GLUCOSE,[2],161.67 mg/dL
same,LACTATE DEHYDROGENASE,[2],137 u/L
same,LIPASE,[2],8.67 u/L
same,PHOSPHORUS,[2],10.3 mg/dL
same,POTASSIUM,[2],4.99 MEQ/L
same,SODIUM,[2],137.1 MEQ/L
same,TOTAL BILIRUBIN,[2],0.0667 mg/dL
same,TOTAL PROTEIN,[2],5.33 G/DL
same,URIC ACID,[2],0.77 mg/dL
same,ABSOLUTE BASOPHIL,[3],0 CELLS/uL
same,ABSOLUTE EOSINOPHIL,[3],0 CELLS/uL
same,ABSOLUTE LYMPHOCYTE,[3],8272 CELLS/uL
same,ABSOLUTE MONOCYTE,[3],65 CELLS/uL
same,ABSOLUTE SEGMENTED NEUTROPHIL,[3],663 CELLS/uL
same,BASOPHIL,[3],0%
same,EOSINOPHIL,[3],0%
same,ERYTHROCYTE COUNT,[3],5.57 x10E6/uL
same,HEMATOCRIT,[3],34.07%
same,HEMOGLOBIN,[3],13.37 G/DL
same,LEUKOCYTE COUNT,[3],9 x10E3/uL
same,LYMPHOCYTE,[3],92%
same,MEAN CORPUSCULAR HEMOGLOBIN,[3],24 pg
same,MEAN CORPUSCULAR HEMOGLOBIN CONCENTRATION,[3],39.23 G/DL
same,MEAN CORPUSCULAR VOLUME,[3],61.2 fL
same,MONOCYTE,[3],0.67%
same,NEUTROPHIL,[3],7.33%
same,NUCLEATED RED BLOOD CELLS,[3],0 /100WBC
same,PLATELET COUNT,[3],1014.67 x10E3/uL
same,ALANINE AMINOTRANSFERASE,[3],84.67 u/L
same,ALBUMIN,[3],4.23 G/DL
same,ALKALINE PHOSPHATASE,[3],412.67 u/L
same,ASPARTATE AMINOTRANSFERASE,[3],99 u/L
same,BLOOD UREA NITROGEN,[3],14.33 mg/dL
same,CARBON DIOXIDE,[3],35.33 mmol/L
same,CHLORIDE,[3],100.33 MEQ/L
same,CHOLESTEROL,[3],53 mg/dL
same,CREATINE PHOSPHOKINASE,[3],324.67 u/L
same,CREATININE,[3],0.12 mg/dL
same,GLUCOSE,[3],168.33 mg/dL
same,LACTATE DEHYDROGENASE,[3],165.33 u/L
same,LIPASE,[3],9.33 u/L
same,PHOSPHORUS,[3],10.6 mg/dL
same,POTASSIUM,[3],5.56 MEQ/L
same,SODIUM,[3],144.83 MEQ/L
same,TOTAL BILIRUBIN,[3],0.13 mg/dL
same,TOTAL PROTEIN,[3],5.77 G/DL
same,URIC ACID,[3],0.7 mg/dL
